Test results as given in patent US5958947A, “DNA-affinic hypoxia selective cytotoxins” (priority 1996, dated 1999).
Values joined by “and” are separate entries in the source; they are usually repeats but may differ in a detail not shown here. Equal values may be shown once. “Also recorded” adds a separate entry of the source. Where a name gives a salt, the structure may show the parent alone. Read-outs that look alike come from different tables or passages of the source.

Key:
calf thymus Topo I [1] = target: T1, calf thymus Topo I (Bos taurus, UniProt F1MN93); assay: Topoisomerase I interaction (relaxation of supercoiled DNA); format: biochemical; conditions: for IC100: 0.5 h; for IC50: Topo I inhibition (50%)-dose, Topo I-induced relaxation of supercoiled DNA
T1 construct: purchased TopoGEN, Inc., Columbus, Ohio; host or cells: calf thymus
T1 sequence (F1MN93 1-767): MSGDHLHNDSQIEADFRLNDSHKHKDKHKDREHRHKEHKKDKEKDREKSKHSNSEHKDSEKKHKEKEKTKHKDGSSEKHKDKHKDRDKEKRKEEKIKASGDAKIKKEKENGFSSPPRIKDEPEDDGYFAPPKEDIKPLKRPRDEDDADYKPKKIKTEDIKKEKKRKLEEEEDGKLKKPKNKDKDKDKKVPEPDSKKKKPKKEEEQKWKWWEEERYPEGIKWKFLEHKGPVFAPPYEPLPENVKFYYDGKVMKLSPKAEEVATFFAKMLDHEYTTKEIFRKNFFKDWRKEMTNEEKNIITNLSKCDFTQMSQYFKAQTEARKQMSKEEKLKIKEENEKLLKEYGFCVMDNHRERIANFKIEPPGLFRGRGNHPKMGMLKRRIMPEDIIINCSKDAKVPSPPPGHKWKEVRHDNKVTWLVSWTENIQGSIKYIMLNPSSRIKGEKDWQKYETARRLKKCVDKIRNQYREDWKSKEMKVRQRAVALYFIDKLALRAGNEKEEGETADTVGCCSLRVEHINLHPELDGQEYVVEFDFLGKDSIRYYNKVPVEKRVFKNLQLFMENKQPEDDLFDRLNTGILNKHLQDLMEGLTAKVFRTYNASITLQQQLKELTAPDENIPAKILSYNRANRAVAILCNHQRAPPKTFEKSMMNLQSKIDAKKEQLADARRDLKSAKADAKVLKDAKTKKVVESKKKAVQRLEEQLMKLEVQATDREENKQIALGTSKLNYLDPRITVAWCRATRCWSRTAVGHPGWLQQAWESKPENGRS
Protocol: (§1) In particular, a Topo I drug screening kit (TopoGEN, Inc., Columbus, Ohio) was used to assay the topoisomerase I THNLA-1 interaction. […] Camptothecin is a Topoisomerase I poison used as an anticancer drug. Camptothecin stabilizes the Topo I-DNA cleavable complex, and therefore prevents the resealing of DNA by Topo-I.
(§2) Individual reaction mixtures were heated for 30 minutes at 37° C. on a heating block, and then 2 μl of 10% SDS - proteinase K solution was added to each reaction mixture. The resulting reaction mixtures then were heated for an additional 30 minutes at 37° C. The reaction mixtures in a loading buffer were extracted with CHCl3 prior to submarine electrophoresis on a 1% agarose gel. The DNA bands were observed visually by staining with ethidium bromide (0.5 μg/ml).

calf thymus Topo I [2] = assay: as above; format: biochemical; conditions: 800 μM, compound alone
Protocol: as §1, §2

V79 cells [3] = assay: Drug uptake: intracellular and extracellular concentrations in V79 cells; format: cell-based, Chinese hamster
Protocol: Also, uptake measurements at various times under both aerobic and hypoxic conditions were made. Afterwards, the samples were pelleted by centrifuging for 6 minutes at 0° C. A small volume of the supernatant (200 μl) was combined with 9 equal volumes (1.8 ml) of acetonitrile and the remaining supernatant was discarded. The samples were centrifuged again to remove residual supernatant and the pellets were lysed with 90 μl water and deproteinized with 0.9 ml acetonitrile. After centrifugation and filtration, all samples were stored at -70° C. until a UV spectroscopic analysis was made at two different wave lengths: 330 nm (nanometers) (absorption of the nitro-group) and 244 nm (λmax). […] Mean intracellular concentration of drug was calculated using a value of 810 fl as an intracellular water content of log-phase cells.
Concentrations were determined by UV spectrophotometry at 330 nm. The plotted points represent results from two experiments, in triplicate.

V79 cells [4] = assay: Drug uptake in the presence of ammonium chloride; format: cell-based, Chinese hamster; conditions: aerobic V79 cells, 60 μM input, 50 mM NH4Cl (stated for THNLA-1)
Protocol: Uptake measurements in the presence of the lysosomotropic agent ammonium chloride (NH4 Cl) also were performed in a manner as previously described.
Concentrations were determined by UV spectrophotometry at 330 nm. The plotted points represent the mean of two experiments.

OVCAR cells = assay: Chemosensitization of OVCAR cells to L-PAM and cis-DDP; format: cell-based; conditions: OVCAR cells resistant to L-PAM and cis-DDP
Text: A longer hypoxic preexposure time and a lower sensitizer dose are preferred over a shorter hypoxic preexposure time and a higher sensitizer dose. […] OVCAR cells are resistant to L-PAM and cis-DDP.

EMT6 tumors = assay: In vivo radiosensitization of EMT6 tumors; set-up: species or system balb mice; conditions: 0.103 mmol/g intraperitoneally, 20 Gy
[5] = Toxicity study in balb mice; format: in vivo

O=[N+]([O-])c1nccn1CCCNc1c2c(nc3ccccc13)CCSC2 [S-THNLA-1, 10-[3-(2-nitroimidazolyl)propylamino]-3,4-dihydro-1-H-thiopyrano[4,3-b]quinoline hydrochloride]
IC100 (calf thymus Topo I [1]; read-out: concentration for complete inhibition of Topo I): ~800 µM | IC50 (calf thymus Topo I [1]): ~800 µM | formation of nicked DNA with Topo I (calf thymus Topo I [1]; in Topo I test): some nicked DNA also was observed | formation of nicked DNA by compound alone (calf thymus Topo I [2]): caused the formation of some nicked DNA

Cl.O=[N+]([O-])c1nccn1CCCNc1c2c(nc3ccccc13)CCCC2 [THNLA-1, 9-[3-(2-nitro-1-imidazolyl)propylamino]-1,2,3,4-tetrahydroacridine hydrochloride]
Ci over 15, 30 and 60 minutes, aerobic (V79 cells [3]; 20 μM, aerobic V79 cells, 37° C.): basically unchanged | Ci over time, hypoxic (V79 cells [3]; 20 μM, hypoxic V79 cells, 37° C.): a decrease of Ci over time | Ci compared with Ce (V79 cells [3]; V79 cells, 37° C., input 0 to 500 μM or 20 μM): substantially greater | aerobic mean uptake factor (Ci/Ce) compared to NLA-1 (V79 cells [3]; aerobic V79 cells): did not result in an increase of the aerobic mean uptake factor | input concentration at which the uptake factor (Ci/Ce) reaches a maximum (V79 cells [3]; aerobic, 30 minutes, 37° C.): about 100 μM | factor of decrease of Ci in the presence of NH4Cl (V79 cells [4]): about 3 | Topo I-dependent single-stranded DNA cleavage (calf thymus Topo I [1]): not observed | IC100 (calf thymus Topo I [1]; read-out: complete inhibition of Topo I not observed up to): > 1000 µM | IC50 (calf thymus Topo I [1]): ~600 µM and 600 µM | inhibition of Topo I-induced relaxation (calf thymus Topo I [1]; supercoiled DNA): inhibits Topo I-induced relaxation of supercoiled DNA, but at significantly higher concentrations than NLA-type compounds | concentration at which inhibition of Topo I starts (calf thymus Topo I [1]; supercoiled DNA relaxation): 100 µM | chemosensitization to L-PAM and cis-DDP (OVCAR cells): effectively chemosensitizes OVCAR cells | administration time before irradiation for maximum radiosensitization (EMT6 tumors): at least one hour before irradiation | radiosensitizing effect in vivo (EMT6 tumors; EMT6 tumors in balb mice, hydrochloride): synergistic effect; also recorded: potent radiosensitizing effect; also recorded: enhanced the effects of 20 Gy radiation in EMT6 tumors to a similar degree as 2 mmol/g of etanidazole | nontoxic concentration [5]: at least 0.129 mmol/g
